Tests used:
HMAO-B = HMAO-B (Homo sapiens (Human), UniProt P27338); test: MAO-B assay (luminogenic MAO substrate); assay type: biochemical; conditions: microsome MAO-B, 16 uM substrate
Method: (§1) MAO assays included luminogenic MAO substrate, reaction buffers, Luciferin Detection and the reconstitution buffer with eserase. Standard MAO reaction mixtures included microsome contained MAO-A (2 ug) or MAO-B (10 ug), 160 uM substrate for MAO-A or 16 uM substrate for MAO-B, MAO-A buffer (100 mM Hepes buffer, pH 7.5, 5% glycerol) or MAO-B buffer (100 mM Hepes, pH 7.5, 5% glycerol, 10% dimethyl sulfoxide) in a final volume of 30 ul. After 20 minutes of pre-incubation of the enzyme with compounds, the reaction was initiated by adding enzyme substrate and the reaction was allowed to proceed for 60 minutes. Reconstituted Luciferin Detection Reagent (30 ul) was then added is added to simultaneously stop the MAO reaction and convert the methyl ester derivative to luciferin and produce light. The amount of light produced is directly proportional to the activity of MAO. The mixtures were further incubated for 20 minutes and activity of the enzyme was determined using Perkin-Elmer Envision Reader.
(§2) Note: […] refers to the concentration of a compound that inhibits a reaction by 50%. In the case of competitive inhibition, IC50=2Ki when the substrate is present at the Km concentration, as per the relationship: Ki=IC50/[1+(substrate concentration/Km)].

HMAO-A = HMAO-A (Homo sapiens (Human), UniProt P21397); test: MAO-A assay (luminogenic MAO substrate); assay type: biochemical; conditions: microsome MAO-A, 160 uM substrate
Method: as §1, §2

recombinant human ALDH2 = recombinant human ALDH2 (Homo sapiens (Human), UniProt P05091); test: ALDH2 assay (NADH formation); assay type: biochemical; conditions: 60 min pre-incubation, 150 uM formaldehyde, 2.5 mM NAD+; read-out: IC50 HALDH2
Method: Standard ALDH2 reaction mixtures contained 150 uM formaldehyde, 2.5 mM NAD^+, 10 mM MgCl2 and 10 nM recombinant human ALDH2 in 50 mM Hepes buffer, pH 7.4, 0.01% Tween 20 in a final volume of 50 ul using 384-well plates. After 60 min of pre-incubation of compound with ALDH2 and formaldehyde, the reaction was started by adding NAD+ and the reaction mixture was allowed to proceed for 90 minutes. Activity of the enzyme was determined by monitoring NADH formation using Perkin-Elmer Envision Reader with excitation and emission wavelengths set at 340 and 460 nm, respectively.
as §2

[1] = system: male Sprague Dawley (SD) rats; test: Rat cocaine cue reinstatement; assay type: in vivo
Method: Training of male Sprague Dawley (SD) rats had 3 separate stages. First, during self administration, animals were trained to lever press for cocaine with presentation of concomitant cues associated with drug delivery. Rats that reached criteria for addiction were included in the study. Afterward, during cue extinction, cocaine-cue dependent behavior was extinguished. Lastly, during cocaine cue reinstatement, the effect of compounds was tested on lever presses upon cue presentation (FIG. 2).
Rats were trained to self administer i.v. cocaine (0.35 mg/kg/injection) daily (Monday to Friday) in standard operant chambers with retractable levers (Coulbourn Instruments, PA). During the daily 2 hr session, rats received a 0.05 ml infusion of 0.35 mg/kg cocaine every time the active lever was pressed. A cue light and tone turned on for 2 sec together with activation of a pump that delivered the cocaine solution. Rats were required to maintain an infusion rate of ≧20+ per day for at least 10 days before being moved to extinction training.
During extinction sessions lever presses no longer produced cocaine infusion and cue light/tone presentation was absent. Rats received a maximum of 15 extinction sessions.
On the next day after reaching extinction criteria, rats were treated orally with vehicle (Formulation 2B: 25% PEG400/5% Vit E TPGS/1% SLS/69% water with 0.5% Methocel) or drug (compound of Example 2 or compound of Example 5) before the cue reinstatement session. Cue reinstatement began with a tone and cue light. This 2 hr session was identical to the self-administration session (cue light and tone present upon active lever press) except that no cocaine was delivered. The number of active lever presses was compared to extinction lever responding. This is considered a measure of reinstatement. The next day, rats were returned to extinction sessions for at least 2 or 3 more sessions. Rats then received a second and last reinstatement session with an opposite treatment to the one received on the first reinstatement session (vehicle or drug treatment). […] The light/tone presentation triggers this response and it is interpreted as a measure of reinstatement even though cocaine is not available.

Male SD rats = test: Rat nicotine self administration, acute treatment; assay type: in vivo; conditions: 1 hr before session
Method: Male SD rats were trained to self administer i.v. nicotine (0.03 mg/kg/inj) daily (Monday to Friday) in standard operant chambers with retractable levers (MED Associates, Inc) as previously published (Levin et al., 2003; Levin et al., 2007). During the daily 45 min session, rats received 0.05 ml infusion of 0.03 mg/kg/infusion of nicotine every time the active lever was pressed. A cue light and tone turned on for 0.5 sec together with the activation of a pump that delivered the nicotine solution. Daily sessions were run for at least 10 days before the initiation of drug testing. Solutions of compounds of Example 2 and Example 5 were prepared fresh daily in Formulation 2B: 25% PEG400/5% Vit E TPGS/1% SLS/69% water with 0.5% Methocel) for oral dosing. Compound of Example 2 doses were administered in a counterbalanced design for testing 1 hr before each nicotine session. Every rat received all drug doses and vehicle in a randomly assigned order. The oral drug administrations were made twice per week.
Compound of Example 5 was tested in a study using 4 independent groups. Each group received either oral vehicle or 1 of the 3 doses of compound of Example 5 (5, 10 or 30 mg-eq/kg). […] The 5 mg/kg dose was ineffective.

Chain of HMAO-A (P21397 whole entry): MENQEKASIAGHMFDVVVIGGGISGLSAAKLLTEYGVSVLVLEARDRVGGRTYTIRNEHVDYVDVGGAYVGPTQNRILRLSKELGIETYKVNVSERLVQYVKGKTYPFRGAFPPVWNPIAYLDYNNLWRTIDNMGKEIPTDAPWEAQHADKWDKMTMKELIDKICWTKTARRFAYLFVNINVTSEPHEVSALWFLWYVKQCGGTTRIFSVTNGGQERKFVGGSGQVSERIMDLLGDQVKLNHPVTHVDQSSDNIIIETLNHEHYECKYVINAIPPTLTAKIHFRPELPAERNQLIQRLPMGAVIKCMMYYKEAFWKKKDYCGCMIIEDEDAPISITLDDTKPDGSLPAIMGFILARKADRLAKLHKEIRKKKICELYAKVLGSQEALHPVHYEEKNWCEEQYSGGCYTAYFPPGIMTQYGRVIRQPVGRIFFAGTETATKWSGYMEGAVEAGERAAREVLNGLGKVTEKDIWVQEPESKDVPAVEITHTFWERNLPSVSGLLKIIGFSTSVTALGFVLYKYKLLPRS
Chain of recombinant human ALDH2 (P05091 18-517): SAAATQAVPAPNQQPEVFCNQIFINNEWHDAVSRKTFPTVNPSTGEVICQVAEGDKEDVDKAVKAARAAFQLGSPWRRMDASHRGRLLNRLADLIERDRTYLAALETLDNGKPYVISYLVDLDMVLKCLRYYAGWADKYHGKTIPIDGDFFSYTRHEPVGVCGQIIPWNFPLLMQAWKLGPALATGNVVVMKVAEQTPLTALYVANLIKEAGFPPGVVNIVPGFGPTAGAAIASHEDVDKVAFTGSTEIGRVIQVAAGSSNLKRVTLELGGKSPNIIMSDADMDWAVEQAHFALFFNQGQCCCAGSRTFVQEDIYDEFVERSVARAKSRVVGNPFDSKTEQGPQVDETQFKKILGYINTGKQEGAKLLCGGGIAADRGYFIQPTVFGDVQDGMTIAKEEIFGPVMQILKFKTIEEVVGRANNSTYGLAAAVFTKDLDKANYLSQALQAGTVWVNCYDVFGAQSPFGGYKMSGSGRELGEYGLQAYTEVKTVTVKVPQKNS
Chain of HMAO-B (P27338 whole entry): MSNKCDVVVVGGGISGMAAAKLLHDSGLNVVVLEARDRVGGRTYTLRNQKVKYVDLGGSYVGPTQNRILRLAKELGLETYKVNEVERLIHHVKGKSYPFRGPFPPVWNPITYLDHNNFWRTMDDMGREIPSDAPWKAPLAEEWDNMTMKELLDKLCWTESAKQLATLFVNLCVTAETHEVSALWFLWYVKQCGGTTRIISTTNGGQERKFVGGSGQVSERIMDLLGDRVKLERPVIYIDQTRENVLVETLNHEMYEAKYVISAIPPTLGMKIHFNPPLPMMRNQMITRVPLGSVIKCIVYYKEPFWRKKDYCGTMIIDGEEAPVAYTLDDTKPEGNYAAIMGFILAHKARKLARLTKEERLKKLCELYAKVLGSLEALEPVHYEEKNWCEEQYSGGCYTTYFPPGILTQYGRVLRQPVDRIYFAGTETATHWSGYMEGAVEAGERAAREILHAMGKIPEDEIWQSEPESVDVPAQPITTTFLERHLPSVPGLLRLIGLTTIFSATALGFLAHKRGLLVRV

## O=C(NCc1ccc(-c2cc[nH]c(=O)c2)cc1)c1c(F)cccc1F [Compound 10, 2,6-difluoro-N-(4-(2-oxo-1,2-dihydropyridin-4-yl)benzyl)benzamide]
HMAO-B
  IC50: > 130 µM
HMAO-A
  IC50: > 130 µM
Recombinant human ALDH2
  IC50: 0.89 µM

## O=C(NCc1ccc(-c2cc[nH]c(=O)c2)cc1)c1c(F)ccc(F)c1Cl [Compound 7, 2-chloro-3,6-difluoro-N-(4-(2-oxo-1,2-dihydropyridin-4-yl)benzyl)benzamide]
HMAO-B
  IC50: > 130 µM
HMAO-A
  IC50: > 130 µM
Recombinant human ALDH2
  IC50: 0.464 µM

## Cc1cc(CNC(=O)c2c(Cl)cccc2Cl)ccc1-c1cc[nH]c(=O)c1 [Compound 8, 2,6-dichloro-N-(3-methyl-4-(2-oxo-1,2-dihydropyridin-4-yl)benzyl)benzamide]
HMAO-B
  IC50: > 130 µM
HMAO-A
  IC50: > 130 µM
Recombinant human ALDH2
  IC50: 0.48 µM

## Cc1cc(-c2ccc(CNC(=O)c3c(Cl)cccc3Cl)cc2)cc(=O)[nH]1 [Compound 6, 2,6-dichloro-N-[4-(6-methyl-2-oxo-1,2-dihydro-pyridin-4-yl)-benzyl]-benzamide]
HMAO-B
  IC50: > 130 µM
HMAO-A
  IC50: > 130 µM
Recombinant human ALDH2
  IC50: 1.11 µM

## O=C(NCc1ccc(-c2cc[nH]c(=O)c2)cc1)c1c(Cl)cccc1Cl [Compound 2, 2,6-dichloro-N-[4-(2-oxo-1,2-dihydro-pyridin-4-yl)-benzyl]-benzamide]
HMAO-B
  IC50: > 130 µM
HMAO-A
  IC50: > 130 µM
Recombinant human ALDH2
  IC50: 0.102 µM
[1]; 5 mg/kg oral
  reduction of cocaine cue-induced reinstatement (lever presses) compared to vehicle: 69%
[1]; 10 mg/kg oral
  reduction of cocaine cue-induced reinstatement (lever presses) compared to vehicle: 72%
[1]; 30 mg/kg oral
  reduction of cocaine cue-induced reinstatement (lever presses) compared to vehicle: 86%
Male SD rats; 1 mg/kg oral
  effect on number of nicotine infusions compared to vehicle: without effect
Male SD rats; 5 mg/kg oral
  effect on number of nicotine infusions compared to vehicle: without effect
Male SD rats; 10 mg/kg oral
  inhibition of number of nicotine infusions compared to vehicle: 26%
Male SD rats; 30 mg/kg oral
  inhibition of number of nicotine infusions compared to vehicle: 28%
Male SD rats; 60 mg/kg oral
  inhibition of number of nicotine infusions compared to vehicle: 31%

## O=C(NCc1ccc(-c2cc[nH]c(=O)c2)cc1F)c1c(Cl)cccc1Cl [Compound 12, 2,6-dichloro-N-(2-fluoro-4-(2-oxo-1,2-dihydropyridin-4-yl)benzyl)benzamide]
HMAO-B
  IC50: > 130 µM
HMAO-A
  IC50: > 130 µM
Recombinant human ALDH2
  IC50: 0.304 µM

## O=C(NCc1ccc(-c2cc[nH]c(=O)c2)cc1)c1cccc(F)c1Cl [Compound 3, 2-chloro-3-fluoro-N-(4-(2-oxo-1,2-dihydropyridin-4-yl)benzyl)benzamide]
HMAO-B
  IC50: > 130 µM
HMAO-A
  IC50: > 130 µM
Recombinant human ALDH2
  IC50: 0.215 µM

## Cn1ccc(-c2ccc(CNC(=O)c3c(Cl)cccc3Cl)cc2)cc1=O [Compound 9, 2,6-dichloro-N-(4-(1-methyl-2-oxo-1,2-dihydropyridin-4-yl)benzyl)benzamide]
HMAO-B
  IC50: > 130 µM
HMAO-A
  IC50: > 130 µM
Recombinant human ALDH2
  IC50: 2.09 µM

## Cc1cccc(Cl)c1C(=O)NCc1ccc(-c2cc[nH]c(=O)c2)cc1 [Compound 4, 2-chloro-6-methyl-N-(4-(2-oxo-1,2-dihydropyridin-4-yl)benzyl)benzamide]
HMAO-B
  IC50: > 130 µM
HMAO-A
  IC50: > 130 µM
Recombinant human ALDH2
  IC50: 0.023 µM

## O=C(NCc1ccc(-c2cc[nH]c(=O)c2)cc1)c1c(F)cccc1Cl [Compound 11, 2-chloro-6-fluoro-N-(4-(2-oxo-1,2-dihydropyridin-4-yl)benzyl)benzamide]
HMAO-B
  IC50: > 130 µM
HMAO-A
  IC50: > 130 µM
Recombinant human ALDH2
  IC50: 0.379 µM

## O=C(NCc1ccc(-c2cc(=O)[nH]cc2F)cc1)c1c(Cl)cccc1Cl [Compound 13, 2,6-dichloro-N-(4-(5-fluoro-2-oxo-1,2-dihydropyridin-4-yl)benzyl)benzamide]
HMAO-B
  IC50: > 130 µM
HMAO-A
  IC50: > 130 µM
Recombinant human ALDH2
  IC50: 0.025 µM

## Cc1cccc(C)c1C(=O)NCc1ccc(-c2cc[nH]c(=O)c2)cc1 [Compound 5, 2,6-dimethyl-N-(4-(2-oxo-1,2-dihydropyridin-4-yl)benzyl)benzamide]
HMAO-B
  IC50: > 130 µM
HMAO-A
  IC50: > 130 µM
Recombinant human ALDH2
  IC50: 0.166 µM

## COCCOc1cc(Cl)c(C(=O)NCc2ccc(-c3cc[nH]c(=O)c3)cc2)c(Cl)c1 [Compound 1, 2,6-dichloro-4-(2-methoxyethoxy)-N-(4-(2-oxo-1,2-dihydropyridin-4-yl)benzyl)benzamide]
HMAO-B
  IC50: > 130 µM
HMAO-A
  IC50: > 130 µM
Recombinant human ALDH2
  IC50: 0.063 µM
